# Earlier results as cited in patent US20140039057A1, “Compositions” (Reckitt Benckiser Healthcare (UK) Limited, priority 2008, published 2014).
# Details: phase II and phase III clinical studies
smiles,measurement,value
CC(C(=O)O)c1ccc(-c2ccccc2)c(F)c1 (stereo not shown) [Flurbiprofen],efficacy in the treatment of sore throat,efficacious
